According to US10172927B2, “Detection/measurement of malaria infection disease utilizing natural immunity by hemozoin induction, screening of preventative or therapeutic medicine for malaria infection disease, and regulation of natural immunity induction” (Osaka University, priority 2004, dated 2019):

Test system: FL-DCs stimulated with HZ
Assay: Chloroquine effect on HZ-induced cytokine production by FL-DCs
Format: cell-based, mouse
Settings: 30 μM HZ, CQ 10 μM, 24 hours; P<0.05 HZ vs. HZ+CQ
Method: Single cell suspensions of spleen cells (5×10^5 cells/well) were cultured in complete RPMI 1640 medium supplemented with 10% FCS for 48 hours. F1t3 ligand-induced bone marrow-derived DCs (FL-DCs) (1×10^5 cells/well) were generated by culturing bone marrow cells with F1t3 ligand (100 ng/ml; Pepro Tech) for eight to nine days in DMEM medium containing 10% FCS. The cells were stimulated in the presence of the indicated stimuli and supernatants were collected for cytokine ELISA.
Murine TNF-α, IL-12p40, MCP-1, IL-6 (R & D Systems), and IFNα (PBL Bio. Lab) were measured either from the supernatants or the sera by ELISA according to the manufacturer's instructions.
The anti-malarial formulation, chloroquine (CQ), has been reported to inhibit proinflammatory responses during malaria infection in addition to endosome/lysosome maturations and malarial hemozoin crystal formations, whereas the exact mechanism of anti-malarial effects of CQ is still under debate (Int. J. Parasitol. 32: 1645-1653, 2002; Life Sci. 74: 1957-1972, 2004). […] To examine the effect of CQ to HZ-induced proinflammatory responses, FL-DCs were stimulated with HZ in the presence of CQ. […]
(a) To detect DNA contamination, HZ was run on an agarose gel and stained with ethidium bromide. […] Then the supernatants were collected and measured for TNFα or IL-12p40 by ELISA. […] “n.d.” means “not detected”.

**Q.** With CCN(CC)CCCC(C)Nc1ccnc2cc(Cl)ccc12 (stereo not shown) [CQ, chloroquine] as the molecule, how does the “HZ-induced TNFα and IL-12p40 productions by FL-DCs in the presence of CQ” value read?
**A.** diminished
